Numbered stars: 1 amine (or outer) side, 2 acyl side, 3 side chain; on linkers, the order of the positions; unused ones are H or OH. Bridge positions count the residues as written; N and C are the ends. Square brackets hold non-standard residues; d marks the D form. Side chains are listed from the residue outwards. Ends that are not written are not given here. Peptide text beside a SMILES is read from it. * marks the point of attachment. C20 diacid = O=C(O)CCCCCCCCCCCCCCCCCCC(=O)*; C18 diacid = O=C(O)CCCCCCCCCCCCCCCCC(=O)*; γGlu = O=C(O)[C@H](CCC(=O)[*:2])N[*:1]; αMeF = C[C@](N)(Cc1ccccc1)C(=O)O; Dab = NCC[C@H](N)C(=O)O; Aib = CC(C)(N)C(=O)O

Series [1] concerns the target T1, human amylin receptor (calcitonin receptor co-expressed with receptor activity modifying protein, RAMP3) (hAMYR3) (Homo sapiens, UniProt O60896+P30988).
T1 construct: expressed in transfected cells
T1 sequence (P30988 25-474): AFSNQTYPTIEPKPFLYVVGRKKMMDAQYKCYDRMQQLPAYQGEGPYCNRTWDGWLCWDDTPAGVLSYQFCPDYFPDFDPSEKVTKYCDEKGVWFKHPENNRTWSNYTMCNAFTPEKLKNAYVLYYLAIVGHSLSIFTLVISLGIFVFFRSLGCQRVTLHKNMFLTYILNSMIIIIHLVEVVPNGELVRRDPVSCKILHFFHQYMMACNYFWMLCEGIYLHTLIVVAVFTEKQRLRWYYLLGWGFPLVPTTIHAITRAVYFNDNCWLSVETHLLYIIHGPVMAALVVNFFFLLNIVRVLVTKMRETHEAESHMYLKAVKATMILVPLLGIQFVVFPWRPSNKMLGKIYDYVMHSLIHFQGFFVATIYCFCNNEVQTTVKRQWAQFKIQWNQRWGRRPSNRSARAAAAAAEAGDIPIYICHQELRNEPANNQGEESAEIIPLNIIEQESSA
T1 sequence (O60896 24-148 partner): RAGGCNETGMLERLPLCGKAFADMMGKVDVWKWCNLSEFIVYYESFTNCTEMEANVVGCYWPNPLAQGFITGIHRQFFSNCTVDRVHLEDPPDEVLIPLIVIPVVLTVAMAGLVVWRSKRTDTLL
In words: cAMP production in 1321N1 cells with stable recombinant expression of human amylin receptor (hAMYR3). It is filed as cell-based. As to conditions: for EC50: cAMP production, 1321N1 cells expressing human amylin3 receptor; for Ratio (selectivity hAMYR vs hCTR, ratio of EC50 values at the two receptors): EC50 hCTR / EC50 hAMYR3. The procedure: (§1) The functional activities of lipidated pramlintide analogue peptides, such as cAMP production, were tested in 1321N1 cell line with stable recombinant expression of human calcitonin receptor (hCTR) or human amylin receptor (calcitonin receptor co-expressed with receptor activity modifying protein, RAMP3) (hAMYR3) or HEK cells with stable recombinant expression of rat calcitonin receptor (rat CTR) or rat amylin receptor (calcitonin receptor co-expressed with receptor activity modifying protein, RAMP3) (Rat AMYR3).
(§2) Cryopreserved cell stock was thawed rapidly in a water-bath, suspended in assay buffer (0.1% BSA (Sigma #A3059) in HBSS (Sigma #H8264) with 25 mM HEPES, pH 7.4 and containing 0.5 mM IB MX (Sigma #17018)) and spun at 240×g for 5 minutes. Cells were re-suspended in assay buffer at a batch-dependent optimized concentration (e.g. hCTR cells at 0.125×10^5 cells/mL, hAMYR3 cells at 0.125×10^5 cells/mL, rat CTR cells at 1×10^5 cells/mL, rat AMYR3 at 2×10^5 cells/mL).
(§3) The test peptide stock was prepared in DMSO and diluted in assay buffer to reach stated concentrations and transferred in duplicates into a 384-black shallow well microtitre assay plate (Corning #3676). Cells were added to the assay plate, incubated at room temperature for 30 minutes and the CAMP level measured using CAMP dynamic 2 HTRF kit (Cisbio, Cat #62AM4PEJ), following the two step protocol as per manufacturer's recommendations. The plates were read on an Envision (Perkin Elmer) using excitation wavelength of 320 nm and emission wavelengths of 620 nm & 665 nm.
(§4) Data was transformed to % Delta F as described in the manufacturer's guidelines and analyzed as percent activation of maximal amylin or calcitonin effect by 4-parameter logistic fit to determine EC50 values. The selectivity of a peptide to hAMYR vs hCTR is defined as a ratio of EC50 values at the two receptors.
On the technique in general: Changes in cAMP serve as a functional read-out for many G protein-coupled receptors.

Series [2] concerns the target T2, human calcitonin receptor (hCTR) (Homo sapiens, UniProt P30988).
T2 construct: expressed in transfected cells
T2 sequence (P30988 25-474): T1 sequence (P30988 25-474)
In words: cAMP production in 1321N1 cells with stable recombinant expression of human calcitonin receptor (hCTR). It is filed as cell-based. As to conditions: 1321N1 cells expressing human calcitonin receptor. As for the experimental part: as §1, §2, §3, §4

The conditions of series [3]: cited from earlier work.

By EC50 is commonly meant the concentration giving half of the maximal effect. Take `CC[C@H](C)[C@H](NC(=O)[C@H](C)NC(=O)[C@@H]1CCCN1C(=O)[C@H](Cc1ccccc1)NC(=O)[C@H](CC(N)=O)NC(=O)C(C)(C)NC(=O)[C@H](CO)NC(=O)[C@H](CO)NC(=O)[C@H](Cc1c[nH]cn1)NC(=O)[C@@H](NC(=O)[C@H](CC(C)C)NC(=O)[C@H](Cc1ccccc1)NC(=O)[C@H](CC(N)=O)NC(=O)[C@H](C)NC(=O)[C@H](CC(C)C)NC(=O)[C@H](CCCNC(=N)N)NC(=O)[C@H](CCC(N)=O)NC(=O)[C@@H](NC(=O)[C@H](C)NC(=O)[C@@H]1CSSC[C@H](NC(=O)[C@@H](N)CCCCNC(=O)CC[C@H](NC(=O)CC[C@H](NC(=O)CCCCCCCCCCCCCCCCCCC(=O)O)C(=O)O)C(=O)O)C(=O)N[C@@H](CC(N)=O)C(=O)N[C@@H]([C@@H](C)O)C(=O)N[C@@H](C)C(=O)N[C@@H]([C@@H](C)O)C(=O)N1)[C@@H](C)O)C(C)C)C(=O)N[C@@H](CC(C)C)C(=O)N[C@@H](CO)C(=O)N1CCC[C@H]1C(=O)N[C@H](C(=O)N[C@@H](CC(N)=O)C(=O)N[C@H](C(=O)NCC(=O)N[C@@H](CO)C(=O)N[C@@H](CCN)C(=O)N[C@H](C(=O)N[C@@H](Cc1ccc(O)cc1)C(N)=O)[C@@H](C)O)C(C)C)[C@@H](C)O` [Peptide 125, K(γE-γE-C20diacid)[CNTATC]ATQRLANFLVHSS(Aib)NFPAILSPTNVGS(Dab)TY-amide] (H-K([γGlu-γGlu-C20 diacid])CNTATCATQRLANFLVHSS[Aib]NFPAILSPTNVGS[Dab]TY-NH2; disulfide 2-7 (inferred)): the EC50 in series [1] was 1.2 nM. Consider `CC[C@H](C)[C@H](NC(=O)[C@H](C)NC(=O)[C@@H]1CCCN1C(=O)[C@H](Cc1ccccc1)NC(=O)[C@H](CC(N)=O)NC(=O)[C@@H]1CCCN1C(=O)[C@H](CO)NC(=O)[C@H](CO)NC(=O)[C@H](Cc1c[nH]cn1)NC(=O)[C@@H](NC(=O)[C@H](CC(C)C)NC(=O)[C@H](Cc1c[nH]c2ccccc12)NC(=O)[C@H](CC(N)=O)NC(=O)[C@H](C)NC(=O)[C@H](CC(C)C)NC(=O)[C@H](CCCNC(=N)N)NC(=O)[C@H](CCC(N)=O)NC(=O)[C@@H](NC(=O)[C@H](C)NC(=O)[C@@H]1CSSC[C@H](NC(=O)[C@@H](N)CCCCNC(=O)CC[C@H](NC(=O)CC[C@H](NC(=O)CCCCCCCCCCCCCCCCCCC(=O)O)C(=O)O)C(=O)O)C(=O)N[C@@H](CC(N)=O)C(=O)N[C@@H](C)C(=O)N[C@@H](C)C(=O)N[C@@H]([C@@H](C)O)C(=O)N1)[C@@H](C)O)C(C)C)C(=O)N[C@@H](CC(C)C)C(=O)N[C@@H](CO)C(=O)N1CCC[C@H]1C(=O)N[C@H](C(=O)N[C@@H](CC(N)=O)C(=O)N[C@H](C(=O)NCC(=O)N[C@@H](CO)C(=O)N[C@@H](CC(N)=O)C(=O)N[C@H](C(=O)N[C@@H](Cc1ccc(O)cc1)C(N)=O)[C@@H](C)O)C(C)C)[C@@H](C)O` [Peptide 120] (H-K([γGlu-γGlu-C20 diacid])CNAATCATQRLANWLVHSSPNFPAILSPTNVGSNTY-NH2; disulfide 2-7; N-terminus assumed), for which the results for the EC50 in series [2] and in series [1] were 10.7 nM and 1.77 nM, respectively. On to `CC[C@H](C)[C@H](NC(=O)[C@@H]1CCCN1C(=O)CNC(=O)[C@H](Cc1ccccc1)NC(=O)[C@H](CC(N)=O)NC(=O)C(C)(C)NC(=O)[C@H](CO)NC(=O)[C@H](CO)NC(=O)[C@H](Cc1c[nH]cn1)NC(=O)[C@@H](NC(=O)[C@H](CC(C)C)NC(=O)[C@H](Cc1ccccc1)NC(=O)[C@H](CC(N)=O)NC(=O)[C@H](C)NC(=O)[C@H](CC(C)C)NC(=O)[C@H](CCCNC(=N)N)NC(=O)[C@H](CCC(N)=O)NC(=O)[C@@H](NC(=O)[C@H](C)NC(=O)[C@@H]1CSSC[C@H](NC(=O)[C@H](CCCCN)NC(=O)CC[C@H](NC(=O)CCCCCCCCCCCCCCCCC(=O)O)C(=O)O)C(=O)N[C@@H](CC(N)=O)C(=O)N[C@@H]([C@@H](C)O)C(=O)N[C@@H](C)C(=O)N[C@@H]([C@@H](C)O)C(=O)N1)[C@@H](C)O)C(C)C)C(=O)N[C@@H](CC(C)C)C(=O)N1CCC[C@H]1C(=O)N1CCC[C@H]1C(=O)N[C@H](C(=O)N[C@@H](CCCNC(=N)N)C(=O)N[C@H](C(=O)NCC(=O)N[C@@H](CO)C(=O)N[C@@H](CC(N)=O)C(=O)N[C@H](C(=O)N[C@@H](Cc1ccc(O)cc1)C(N)=O)[C@@H](C)O)C(C)C)[C@@H](C)O` [Peptide 71, C18diacid-γE-K[CNTATC]ATQRLANFLVHSS(Aib)NFGPILPPTRVGSNTY-amide] ({C18 diacid-γGlu}-KCNTATCATQRLANFLVHSS[Aib]NFGPILPPTRVGSNTY-NH2; disulfide 2-7), for which the EC50 in series [2] was 1.39 nM. Also, in series [1], the “Ratio (selectivity hAMYR vs hCTR, ratio of EC50 values at the two receptors)” value is recorded as 7 and the EC50 worked out at 0.211 nM.

For `CC[C@H](C)[C@H](NC(=O)[C@@H]1CCCN1C(=O)CNC(=O)[C@H](Cc1ccccc1)NC(=O)[C@H](CC(N)=O)NC(=O)C(C)(C)NC(=O)[C@H](CO)NC(=O)[C@H](CO)NC(=O)[C@H](Cc1c[nH]cn1)NC(=O)[C@@H](NC(=O)[C@H](CC(C)C)NC(=O)[C@H](Cc1ccccc1)NC(=O)[C@H](CC(N)=O)NC(=O)[C@H](C)NC(=O)[C@H](CC(C)C)NC(=O)[C@H](CCCNC(=N)N)NC(=O)[C@H](CCC(N)=O)NC(=O)[C@@H](NC(=O)[C@H](C)NC(=O)[C@@H]1CSSC[C@H](NC(=O)[C@@H](N)CCCCNC(=O)CC[C@H](NC(=O)CC[C@H](NC(=O)CCCCCCCCCCCCCCCCC(=O)O)C(=O)O)C(=O)O)C(=O)N[C@@H](CC(N)=O)C(=O)N[C@@H]([C@@H](C)O)C(=O)N[C@@H](C)C(=O)N[C@@H]([C@@H](C)O)C(=O)N1)[C@@H](C)O)C(C)C)C(=O)N[C@@H](CC(C)C)C(=O)N1CCC[C@H]1C(=O)N1CCC[C@H]1C(=O)N[C@H](C(=O)NC(C)(C)C(=O)N[C@H](C(=O)NCC(=O)N[C@@H](CO)C(=O)N[C@@H](CC(N)=O)C(=O)N[C@H](C(=O)N[C@@H](Cc1ccc(O)cc1)C(N)=O)[C@@H](C)O)C(C)C)[C@@H](C)O` [Peptide 89, K(γE-γE-C18diacid)[CNTATC]ATQRLANFLVHSS(Aib)NFGPILPPT(Aib)VGSNTY-amide] (H-K([γGlu-γGlu-C18 diacid])CNTATCATQRLANFLVHSS[Aib]NFGPILPPT[Aib]VGSNTY-NH2; disulfide 2-7; N-terminus assumed), the “Ratio (selectivity hAMYR vs hCTR, ratio of EC50 values at the two receptors)” value in series [1] is given as 18. For “amylin (KCNTATCATQRLANFLVHSSNNFGAILSSTNVGSNTY; not fully specified (C-terminus, bridges); cysteine pairing not given here; UniProt P10997 34-70, looked up) [native peptide hormone of which pramlintide is a synthetic analogue]”, the “terminal half-life of amylin in rats” value in series [3] is given as “around 13 minutes”. In the case of `CC[C@H](C)[C@H](NC(=O)[C@@H]1CCCN1C(=O)CNC(=O)[C@](C)(Cc1ccccc1)NC(=O)[C@H](CC(N)=O)NC(=O)[C@H](CC(N)=O)NC(=O)[C@H](CO)NC(=O)[C@H](CO)NC(=O)[C@H](Cc1c[nH]cn1)NC(=O)[C@H](CCCNC(=N)N)NC(=O)[C@H](CC(C)C)NC(=O)[C@H](Cc1ccccc1)NC(=O)[C@H](CC(N)=O)NC(=O)[C@H](C)NC(=O)[C@H](CC(C)C)NC(=O)[C@H](CCCNC(=N)N)NC(=O)[C@H](CCC(N)=O)NC(=O)[C@@H](NC(=O)[C@H](C)NC(=O)[C@@H]1CSSC[C@H](NC(=O)[C@@H](N)CCCCNC(=O)CC[C@H](NC(=O)CCCCCCCCCCCCCCCCC(=O)O)C(=O)O)C(=O)N[C@@H](CC(N)=O)C(=O)N[C@@H]([C@@H](C)O)C(=O)N[C@@H](C)C(=O)N[C@@H]([C@@H](C)O)C(=O)N1)[C@@H](C)O)C(=O)N[C@@H](CC(C)C)C(=O)N1CCC[C@H]1C(=O)N1CCC[C@H]1C(=O)N[C@H](C(=O)N[C@@H](CCC(=O)O)C(=O)N[C@H](C(=O)NCC(=O)N[C@@H](CO)C(=O)N[C@@H](CC(N)=O)C(=O)N[C@H](C(=O)N[C@@H](Cc1ccc(O)cc1)C(N)=O)[C@@H](C)O)C(C)C)[C@@H](C)O` [Peptide 16, K(γE-C18diacid)[CNTATC]ATQRLANFLRHSSNN(αMePhe)GPILPPTEVGSNTY-amide] (H-K([γGlu-C18 diacid])CNTATCATQRLANFLRHSSNN[αMeF]GPILPPTEVGSNTY-NH2; disulfide 2-7; N-terminus assumed), the half-maximal effective concentration (EC50) in series [2] is 2.02 nM.

The record behind these values is patent US12371464B2, “Polypeptides and uses thereof” (MEDIMMUNE LIMITED, priority 2020, dated 2025).
